Results: patent US5935790A, “Method for detecting a predisposition to susceptibility to toxic effects of drugs and poisons” (Rutgers, The State University of New Jersey, priority 1997, dated 1999)
Like-named read-outs stand apart in the source and are kept apart here.

Assays:
isolated lysosomes = settings: cited from earlier work
arylsulfatase A (ASA) = arylsulfatase A (ASA) (Homo sapiens, UniProt P15289); settings: fibroblasts
Protocol: FIG. 2. The effect of lead acetate on intracellular ASA enzymic activity in cultured human fibroblasts. Fibroblasts were grown in vitro as monolayer cultures in the absence or presence of different concentrations of lead acetate as described in the text. The cells were dissolved in buffer containing detergent and the enzymic activity of ASA and other lysosomal enzymes and protein concentration were determined. The data are expressed relative to the control and the s.e.m. at each concentration of lead is indicated.
The potential effect of lead on cellular levels of ASA was examined in an in vitro system employing human fibroblasts. […] Fibroblast cultures were derived from punch biopsies and maintained in glutamine/penicillin/streptomycin/fetal bovine serum supplemented EMEM or in the same supplemented medium containing 0.5. 5.0. or 20 μM lead acetate. These cultures were split every three cell cycles for a total of 6-12 cell divisions. Fibroblasts in logarithmic growth were washed with PBS and dissolved in 1 mL of PBS containing 0.1% Triton X-100. This suspension was centriftiged for 5 min at 12,000 ×g and the supernatant was employed for determination of ASA and arylsulfatase B (ASB) activities using p-nitrocatechol sulfate as described by Baum et al. [Clin. Chim. Acta 4:453-455 (1959)] and β-galactosidase [Poretz et al., supra]. Each assay was performed in triplicate, and the complete experiment was repeated three times on different occasions for evaluating the effect of lead on cellular levels of ASA.

ASA = settings: daily i.p. 100 mg/kg body weight, cited from earlier work
β-galactosidase = settings: similar conditions as for ASA
Protocol: (§1) The direct effect of lead on ASA activity was also studied. […] Human fibroblast ASA was enriched in a preparation of isolated lysosomal enzymes as described by Gorman and Poretz [J. Cell. Physiol. 131:158-164 (1987)]. Lead acetate in buffer was added to protein preparations containing approximately 2 units of ASA activity in a total volume of 2.0 ml and incubated at 4° C. A control lacking lead was also prepared in an identical fashion. Aliquots were removed at 30 min, 1 hr, 24 hr, and 48 hr and analyzed for ASA, β-galactosidase and β-hexosaminidaseactivities. Enzymic and protein analyses were performed in triplicate, and the complete experiment was repeated three times.

β-hexosaminidase = settings: every concentration of metal studied
Protocol: as §1

partially purified ASA = partially purified ASA (Homo sapiens, UniProt P15289)
partially purified ASA, sequence (P15289 19-507): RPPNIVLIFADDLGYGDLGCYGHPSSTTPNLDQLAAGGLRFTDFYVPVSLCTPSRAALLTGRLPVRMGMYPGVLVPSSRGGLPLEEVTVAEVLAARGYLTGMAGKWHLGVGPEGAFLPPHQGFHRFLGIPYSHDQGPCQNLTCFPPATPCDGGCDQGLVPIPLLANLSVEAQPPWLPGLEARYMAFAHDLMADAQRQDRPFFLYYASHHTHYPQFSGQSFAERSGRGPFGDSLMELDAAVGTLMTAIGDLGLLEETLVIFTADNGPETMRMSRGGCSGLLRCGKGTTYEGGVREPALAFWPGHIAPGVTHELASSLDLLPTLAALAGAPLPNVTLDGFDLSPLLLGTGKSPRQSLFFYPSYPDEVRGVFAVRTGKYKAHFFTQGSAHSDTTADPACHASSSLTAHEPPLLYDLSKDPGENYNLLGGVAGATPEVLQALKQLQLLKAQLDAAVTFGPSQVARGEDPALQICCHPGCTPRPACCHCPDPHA
Protocol: FIG. 3. […] A preparation of partially purified human fibroblast ASA containing other lysosomal hydrolases was incubated for 1 hr at 4° C. in the presence of lead acetate as described in the text. ASA and other hydrolase enzymic activities were determined. The data are expressed relative to the control and the s.e.m at each concentration of lead is indicated.
as §1

rat fibroblasts = settings: lead nitrate in the growth medium; cited from earlier work

arylsulfatase A (ASA), sequence (P15289 19-507): as above

Row | Structure (SMILES) | decrease in stability of the lysosome (isolated lysosomes) | facilitated calcium transport by isolated lysosomes (isolated lysosomes; lead as low as 300 μM, concentration dependent) | amount of ASA relative to control cells grown without lead (arylsulfatase A (ASA)) [%] | reduction of cellular ASA activity (arylsulfatase A (ASA)) | reduction of cellular ASA specific activity (arylsulfatase A (ASA); 0.5 µM) [%] | decrease of ASA lysosomal enzyme activity vs cells in normal medium (arylsulfatase A (ASA); 20 µM) | reduction in ASA activity vs control animals (ASA; rat kidney) [%] | reduction in ASA activity vs control animals (ASA; rat liver) [%] | effect on β-galactosidase activity (β-galactosidase) | effect on β-hexosaminidase activity (β-hexosaminidase) | loss of ASA activity (partially purified ASA; 200 μM lead acetate, 4° C., p=0.045) [%] | time of maximum effect on ASA activity (partially purified ASA; 4° C., unchanged up to 48 hr) [h] | effect on partially purified ASA (partially purified ASA; 100-200 μM lead acetate) | lysosomal membrane stability (rat fibroblasts)
1 | CC(=O)[O-].CC(=O)[O-].[Pb+2] [lead acetate] | greater than 200 fold | markedly increased | ≥ 65 | 32-36% | 14 | 32-36% | 20 | 55 | no reduction | closely paralleled that for ASA activity | 67 | 1 | precipitation of the enzyme and loss of enzymic activity | 
2 | O=[N+]([O-])[O-].O=[N+]([O-])[O-].[Pb+2] [lead nitrate] |  |  |  |  |  |  |  |  |  |  |  |  |  | reduction in lysosomal membrane stability
